Measurements as given in a melting point compilation (Tetko et al.; mined from patent text by program, amines drawn as free bases though some values may be those of a salt).

Row | Compound | melting point [°C]
1 | Nc1ncn(C[C@@H](CO)OCP(=O)(O)O)c(=O)n1 | 175 to 178
2 | CCOC(=O)c1c(SCC(=O)COC(C)=O)nc2c(F)c(F)c(F)cc2c1O | 175 to 180
3 | C=CCn1cccc1C(N)=S | 80.5 to 83
4 | CCCCCCCCCCCCC1(CCCCCCCCCCCC)c2cc(Br)ccc2-c2ccc(Br)cc21 | 49 to 50
5 | CCCCCCCCCCCCCCCCOCC(CO)OCOC(C)=O (stereo not drawn) | 44
6 | O=C(O)c1ccccc1C(=O)NCCC(Oc1c(Br)cc(-c2ccc(-c3c(Cc4ccccc4)sc4ccccc34)cc2)cc1Br)C(=O)O (stereo not drawn) | 130 to 132
7 | CSCS[C@H](C)[C@](O)(Cn1cncn1)c1ccc(Cl)cc1 | 163 to 164
8 | C#CCSc1ccc([N+](=O)[O-])cn1 | 98 to 99.5
9 | CCOC(=O)C1=Cc2c(F)cccc2OC1C(F)(F)F (stereo not drawn) | 45.5 to 47
10 | CCOC(=O)C(C)(C)NC(=O)c1cccc(C2=NC(C)(C)Cc3cc(OCC)c4c(c32)CC(C)(C)O4)c1 | 155 to 156
11 | FC(F)(F)c1cccc(C(Cl)=Nc2nc(C(F)(F)F)c(I)s2)c1 | 136 to 137
12 | COc1cc(OC)n2nc(S(=O)(=O)Nc3c(Cl)cccc3Cl)nc2c1 | 252 to 253
13 | C=CNC(=O)C(C)(Cc1ccccc1)S(=O)(=O)CCCl (stereo not drawn) | 107 to 108
14 | CCOc1cc(C(O)CS(C)(=O)=O)cc(OCC)c1N (stereo not drawn) | 166 to 168
15 | Cc1ccc(C(O[Si](C)(C)C(C)(C)C)C(=O)NO)cc1 (stereo not drawn) | 109 to 111
16 | CCCCCCCCCCCCN=C=S | 75 to 80
17 | O=C1c2cc(C(F)(F)F)c(C(F)(F)F)cc2C(=O)c2cc3ccccc3cc21 | > 280
18 | N#CC1=C(Nc2ccc(F)cc2F)CCC1 | 116 to 119
19 | CCc1nc2c(Cl)ncnc2n1C(C1CC1)C1CC1 | 99 to 100
20 | C#C[C@@H](C)N(O)C(N)=O | 120 to 123
21 | CN(C)Cc1ccc(CSCCNC2=NS(=O)(=O)c3cscc32)o1 | 120 to 124
22 | COc1ccc(S(=O)(=O)N2C(=O)C(c3ccccc3OC)(N3Cc4cc(OC)c(OC)cc4C[C@H]3C(=O)N(C)C)c3cc(Cl)ccc32)c(OC)c1 (stereo partly drawn) | 157
23 | Cc1ccc2c(c1)Oc1cscc1C(=O)N2 | 209 to 216

Row | Compound | melting point [°C]
24 | O=S(=O)(Cl)c1ccccc1Cn1cncn1 | 180 to 195
25 | COC(=O)C(C#N)(CCCN(C)CCc1ccc(OC)c(OC)c1)c1ccc(OC)c(OC)c1 (stereo not drawn) | 129 to 130
26 | CC(C)(C)c1nnc(N=C=O)s1 | 261 to 263
27 | COC(=O)C(Cc1ccc(OC)c(OC)c1)NNc1ccc(C)c(C)c1 (stereo not drawn) | 148 to 150
28 | CNC(=O)n1nc(Oc2c(Cl)cc(C(F)(F)F)cc2[N+](=O)[O-])cc1C | 140 to 142
29 | CC(C)CCOc1cccc2c1C(=O)CC(c1nnn[nH]1)O2 (stereo not drawn) | 134 to 137
30 | Cn1nc(C(F)(F)F)cc1Oc1cc(Cl)c(Cl)cc1[N+](=O)[O-] | 99 to 100
31 | CN(C)c1ccc2nc(N)c(C#N)c(Cl)c2c1 | 285
32 | CCOC(=O)C(NC(=O)OCc1ccccc1)OCC (stereo not drawn) | 66 to 68
33 | CCOC(=O)c1c(OC(C)C)nc2cc(OC)c(OC)cc2c1-c1ccc(OC)c(OC)c1 | 142 to 143
34 | COC(=O)C#CC(=O)c1ccc(Cl)cc1 | 49 to 50
35 | O=c1cc(-c2ccc(OCCOCCOCCOc3ccc(-c4cc(=O)c5c(O)cc(O)cc5o4)cc3)cc2)oc2cc(O)cc(O)c12 | 143 to 145
36 | CCn1c(=O)[nH]c2cc(NC(C)=O)ccc21 | 247 to 249
37 | [N-]=[N+]=N[C@H](C(=O)O)C12CC3CC(CC(C3)C1)C2 | 110 to 112
38 | CN(C(=O)c1ccccn1)c1cc(F)cc(F)c1 | 102 to 104
39 | Cc1cc(C(=Cc2nnnn2C)c2ccc(F)c(C)c2)ccc1F | 138 to 139
40 | Cc1cc(-c2cc(C(F)(F)F)n3ncc(-c4nc(-c5ccc(S(N)(=O)=O)cc5)no4)c3n2)ccc1C(F)(F)F | 273
41 | N=C(N)c1sccc1-c1ccc(CN2CCSC2)cc1 | 162 to 164
42 | Cc1ccc(S(N)(=O)=O)cn1 | 151 to 155
43 | CC(C)Oc1c(C(=O)Nc2nnn[nH]2)sc2c1CCCC2 | 223 to 225
44 | CS(=O)c1c(C=NO[Si](C)(C)C(C)(C)C)nn(-c2c(Cl)cc(C(F)(F)F)cc2Cl)c1N (stereo not drawn) | 150 to 154
45 | C[C@H](Cn1ncnn1)n1cnc2cc3c(=O)n([C@H](C)Cn4cnnn4)nnc3cc2c1=O | 168 to 170
46 | CN(C)S(=O)(=O)n1cc(-c2ccc(Cl)cc2Cl)nc1C(N)=S | 184 to 187

Continued, values first:

Row | melting point [°C] | Compound
47 | 178 to 180 | CN(C)C1CCC(Nc2ncc3ncnc(Nc4ccc(F)c(Cl)c4)c3n2)CC1 (stereo not drawn)
48 | 166 to 168 | O=C(Cn1c(-c2ccc(F)cc2)nc2cccnc21)OCCO
49 | 207 to 210 | Cc1nc2c(cc1C(=O)NC(=N)N)CCCCC2O (stereo not drawn)
50 | 70 to 72 | CCCCCCCN(C(=O)Nc1ccccc1CCc1cc(C(C)(C)C)c(O)c(C(C)(C)C)c1)C1CCCCCC1
51 | 100 to 111 | c1ccc(OCc2ccc(OCc3ccc4ccccc4n3)cc2)cc1
52 | 240 to 242 | CCCCc1nc2cccc(C(=O)OC)c2n1Cc1ccc2nc(-c3ccccc3-c3nnn[nH]3)n(C)c(=O)c2c1
53 | 86 to 89 | Nc1sc2c(c1C(=O)c1cc3ccccc3o1)CCCC2
54 | 140 | O=CNC1(c2ccccc2)CCN(Cc2ccccc2)CC1
55 | 229 to 231 | Cc1nc2c(O[C@@H]3c4ccccc4C[C@H]3O)cc(C(=O)O)cn2c1C (relative stereo)
56 | 110 to 112 | CCOC(=O)c1cc2ccc(SCc3ccc(OC)cc3)cc2nc1Cl
57 | 149 to 150 | CCOC(=O)c1cnc2c(cnn2-c2ccccc2)c1O
58 | 77.5 to 79.6 | COc1cccc(Oc2cc(-c3ccc(C(F)(F)F)cc3)ccn2)c1
59 | 203 to 205 | CSc1cc(C)nc(SC)c1NC(=O)CSc1nc2ccccc2o1
60 | 107 | CNC(=O)C1CCNc2ccccc21 (stereo not drawn)
61 | 116 to 118 | CS(=O)(=O)c1ccc(-c2cc(CO)nn2C2CCCCCC2)cc1
62 | 209 | CCOC(=O)C1=C(N)NC2=C(C(=O)CCC2)C1c1ccccc1N=[N+]=[N-] (stereo not drawn)
63 | 157 to 158 | COc1ccccc1NC(=O)Nc1ccc(CC(=O)OC(C)(C)C)cc1C
64 | 200 to 202 | Cc1ccc(-c2nc3ccc(N(C)C)cn3c2CN(C)C(=O)CC(C)C)cc1
65 | 107 | CCCc1nc(C#N)c(C#N)n1C(c1ccccc1)(c1ccccc1)c1ccccc1
66 | 143 to 144 | O=C(NCCc1ccccc1)c1ccc(OC(F)(F)F)cc1
67 | 211 | O=C(CC1CCOCC1)Nc1cccc2nc(N[C@@H]3CCc4ccccc43)ccc12
68 | 240 to 241 | CC(C)c1cccc(C(C)C)c1NC(=O)C(Cc1ccccc1)NC(=O)NCc1ccccc1 (stereo not drawn)
69 | 157 to 159 | CC(C)[C@H](NC(=O)c1ccc(Cn2nnc(-c3ccc(OC(=O)C(C)(C)C)cc3)n2)cc1)C(=O)OCc1ccccc1
70 | 156 to 158 | CC(C)(C)c1cc(CCc2ccccc2NC(=O)NC2CCN(Cc3ccncc3)CC2)cc(C(C)(C)C)c1O
71 | 253 to 254 | CCC(=C(c1ccc(O)cc1)c1ccc(O)cc1)c1ccc(OCC(=O)O)c(OC)c1
72 | 103 to 105 | Clc1ccc([C@@]2(Cn3ccnc3)OC[C@H](COc3ccc4c(c3)CCN(Cc3ccc(-c5ccccc5)cc3)C4)O2)c(Cl)c1 (racemic)

Row | melting point [°C] | Compound
73 | 185 to 188 | CC(NC(=O)C(NC(=O)c1ccccc1)SC(=O)c1ccccc1)C(=O)N1CCCC1C(=O)O (stereo not drawn)
74 | > 250 | CNCC(C)C1(c2ccccc2)C=CCC=C1 (stereo not drawn)
75 | 91 to 92 | CCCc1cc(Cn2c(=O)ccc3c(CC)nc(CC)cc32)ccc1Oc1ccccc1CC(=O)OC
76 | 152 to 154 | CON(C)C(=O)Nc1ccc(OCc2nc(Cl)ccc2Cl)cc1
77 | 141 to 142 | CCc1noc(-c2c[nH]c(-c3cccc(Oc4ccc(Br)cn4)c3)n2)n1
78 | 143 to 144 | CC(C)(C)OC(=O)N1CCN(c2cccc3c2ccn3S(=O)(=O)c2ccccc2)CC1
79 | 140 | c1ccc2c(c1)C[C@H]1CSC(=Nc3cnccn3)N1C2
80 | 138 to 141 | CCN(CC)c1ccc(CN2CCC(NC(=O)Nc3ccccc3CCc3cc(C(C)(C)C)c(O)c(C(C)(C)C)c3)CC2)cc1
81 | 78 to 80 | Cc1ccc(S(=O)(=O)OCCCCCCCCCOc2cccc(C(N)=O)c2)cc1
82 | 158 | NC(=O)C(Nc1ccc2ccccc2c1)c1c(Cl)cccc1Cl (stereo not drawn)
83 | > 200 | c1ccc(CN2CC3(COc4cc5c(cc43)CCO5)c3c(-c4cncnc4)cccc32)nc1 (stereo not drawn)
84 | 159 to 160 | CCn1nc2c(N)nc3ccccc3c2c1CCCCO
85 | 183 to 184 | CCOC(=O)c1cc(O)n(-c2ccccc2)n1
86 | 173 to 174 | CCCN(CC(=O)Nc1c(OC)nc(C)nc1OC)c1ccccc1
87 | 259 | CCCC1=NN(c2cccc(S(=O)(=O)O)c2)C(=O)C1=CNc1ccccc1CC
88 | 82 to 84 | COc1ccc(CN2C(=O)C3(COc4cc(OC(F)(F)F)ccc43)c3ccccc32)cc1 (stereo not drawn)
89 | 43 to 45 | COC[C@H]1CN(c2ccc([C@H]3CC[C@H](OCC#N)CC3)cc2)C(=O)O1
90 | 135 to 139 | COc1cc(OC)nc(Oc2ccc3[nH]c(C)cc3c2C(=O)OCc2ccccc2)n1
91 | 284 to 286 | O=C(O)c1cn(-c2cccc(F)c2)c2cc(Cl)ccc2c1=O
92 | 295 | NS(=O)(=O)c1ccc(C2CCN(c3ccncc3)CC2)cc1
93 | 90 to 95 | CC(=O)N1CCCC1n1nccc1-c1ccc(Oc2ccc(F)cc2)cc1 (stereo not drawn)
94 | 107 to 108 | COC(=O)c1cc(CCl)ccc1OCc1nc(-c2ccco2)oc1C
95 | 105 | O=C(O)CCC(c1ccccc1)c1ccccc1F (stereo not drawn)
96 | 101 to 104 | COc1ccc(C2=NN(Cc3ccccc3Cl)C(=O)[C@H]3CCCC[C@@H]23)cc1OC (relative stereo)
97 | 179 to 180 | COc1nc(C)cnc1NS(=O)(=O)c1cccnc1-c1ccc(-c2ncon2)cc1
98 | 128 | COc1c(Cl)cc(CNc2ccccc2[N+](=O)[O-])cc1Cl
